From patent publication US20230151432A1, “KIF18A INHIBITORS FOR TREATMENT OF NEOPLASTIC DISEASES” (AMGEN INC., priority 2020, published 2023) come the findings set out here.

Each structure is given as a SMILES string. Like-named read-outs stand apart in the source and are kept apart here. Where only a bound is given, the exact number is not on record here.

Data set [1] concerns the target T1, Recombinant human KIF18A (1-467 His-tagged) protein (Homo sapiens, UniProt Q8NI77).
T1 construct: Recombinant human KIF18A (1-467 His-tagged) protein; His; made in house
Put plainly: KIF18A Enzyme Assay (microtubule-stimulated ATPase activity, ADP-Glo). The class given is biochemical. To be noted: 30 nM KIF18A, 75 μM ATP. The method, then: KIF18A Enzyme Assay: Microtubule-stimulated ATPase activity assay was used to measure KIF18A enzyme activity after treatment with compound. Compounds were 2-fold serially diluted in DMSO (Sigma Inc) over 22-point concentration range. […] The assay measures ADP formed from the ATPase reaction.
Concentration-response curve-fitting and IC50 determination was performed using Genedata Screener Software (Standard 15.0.1, Genedata Inc) with a four-parameter logistic regression fit model.

The test system of data set [2] is OVCAR-8 NCI/ADR-RES cells. Description: Nuclear count assay in multidrug resistant cells, with or without P-gp inhibitor. It is filed as cell-based, human. As to conditions: 4-day NCA; for EC50: Homo sapiens, 96 h, read-out: EC50 (Count POC). The procedure: Compound was added to the cells with a final volume of 200 μL in complete media containing 0.5% DMSO.
The plates were sealed and incubated for 1 hour at room temperature in the dark. Cells were stored at 4° C. in the dark until data acquisition. […] The Total Valid Object Count was represented as a Count POC (Percentage of DMSO Control) using the following formula:
Briefly, OVCAR-8 cells were seeded in duplicate in a Corning 96-well Flat Clear Bottom Black Polystyrene plates (Corning, N.Y.) in 100 μL of appropriate complete media at the appropriate density and grown for 24 hours. […] After 4 days (96 hours) of treatment, the cells were fixed by removing 100 μL of complete media from each well and replacing it with 100 μL of 2×formaldehyde (final 4%) and incubating the plates for 15 minutes at room temperature. […] The plates were sealed and incubated for 1 hour at room temperature in the dark. Cells were stored at 4° C. in the dark until data acquisition. […] The Total Valid Object Count was represented as a Count POC (Percentage of DMSO Control) using the following formula:
Count POC=(Total Valid Object Count in treated well)[…](Total Valid Object Count in DMSO treated wells)×100
Compound concentration and Count POC values were plotted using GraphPad Prism software (V7.0.4) and curve-fitting was performed with 4-parameter equation (variable slope). The concentration-response curves and standard deviation represent two independent experiments run in duplicate.

Data set [3] concerns human bone marrow mononuclear cells (HBMNC). Description: BrdU cell cycle analysis and live cell count in normal cells. It is filed as cell-based. The method, then: (§1) The effect KIF18A inhibitor treatment has on proliferation of normal somatic cells (e.g., not neoplastic cells) was tested by assaying proliferation of human bone marrow mononuclear cells (HBMNCs), primary human foreskin fibroblast cells (hFSF) and human mammary epithelial cells via a 5-bromo-2′-deoxyuridine (BrdU) incorporation assay in which BrdU, an analog of the nucleoside thymidine, is used to identify proliferating cells (Payton et. al., Molecular Cancer Therapeutics, 17(12):2575-85 (2018)). Cells were analyzed on BD LSRFortessa flow cytometer using BD FACSDiva software (BD Biosciences), and post-acquisition data analysis was performed using FSC-Express software (De Novo). The percentage of BrdU positive gated events on the stacked DNA content histograms were reported.
To further examine the effects of KIF18A inhibitor treatment on HBMNC, two normal donors were assessed using the BrdU coupled cell cycle assay and cell count assay (96 hours) was. […] In particular, the amount of BrdU-stained proliferating cells treated with Ispinesib, paclitaxel, or a CDK 4/6 inhibitor (palbociclib) was far less than the amount of vehicle control-treated BrdU-stained cells. […] KIF18A inhibitor treatment was also analyzed for impact on live cell count. After 96 hours, live cells were counted by Vi-CELL XR Cell Viability Analyzer (Beckman Coulter).
To investigate whether KIF18A inhibitors could circumvent this normal cell toxicity barrier, we examined the effects of Compounds C9 and C11 on a panel of cycling normal somatic cell types. First, we treated human bone marrow mononuclear cells (HBMNC) from two normal donors with DMSO, Compound C9 and C11 at 1 μM, ispinesib at 0.05 μM, paclitaxel at 0.05 μM, or palbociclib at 1 μM for 48 h (cell cycle) or 96 h (cell growth).
BrdU and cell cycle analysis. Human bone marrow mononuclear cells (HBMNCs) from two normal donors (#37612, #37534) were cultured for 8 days in defined media as previously described (Payton et al 2018). HBMNCs were seeded in 24-well plate at 1.2×10^6 cells per well in duplicate plates. Cells were treated with DMSO, Compound C9 (1 μM), Compound C11 (1 μM), ispinesib (0.05 μM), paclitaxel ([…]), or palbociclib (1 μM). Cells were collected at 48 h (cell cycle) and 96 h (cell growth). The first set of plates were pulsed with BrdU for 2 h and processing for BrdU cell cycle analysis as previously described (Payton et al 2018). Cells were analyzed on BD LSRFortessa flow cytometer running BD FACSDiva software and post-acquisition data analysis was performed using FSC-Express software. Data was reported for the percentage of BrdU and subG1 gated populations. The second set of plates were collected, and cells counted using Vi-CELL XR Cell Viability Analyzer (Beckman Coulter).

Data set [4] concerns human mammary epithelial cells (HMEC). Put plainly: BrdU incorporation assay in normal cells. The class given is cell-based. As to conditions: 48 hours. The procedure: as §1
The subject of data set [5] is human foreskin fibroblast (hFSF) cells. Description: BrdU incorporation assay in normal cells. The class given is cell-based. As to conditions: 48 hours. The procedure: as §1
(In general: Dividing cells build labelled thymidine or BrdU into new DNA.)

T1 sequence (Q8NI77 1-467): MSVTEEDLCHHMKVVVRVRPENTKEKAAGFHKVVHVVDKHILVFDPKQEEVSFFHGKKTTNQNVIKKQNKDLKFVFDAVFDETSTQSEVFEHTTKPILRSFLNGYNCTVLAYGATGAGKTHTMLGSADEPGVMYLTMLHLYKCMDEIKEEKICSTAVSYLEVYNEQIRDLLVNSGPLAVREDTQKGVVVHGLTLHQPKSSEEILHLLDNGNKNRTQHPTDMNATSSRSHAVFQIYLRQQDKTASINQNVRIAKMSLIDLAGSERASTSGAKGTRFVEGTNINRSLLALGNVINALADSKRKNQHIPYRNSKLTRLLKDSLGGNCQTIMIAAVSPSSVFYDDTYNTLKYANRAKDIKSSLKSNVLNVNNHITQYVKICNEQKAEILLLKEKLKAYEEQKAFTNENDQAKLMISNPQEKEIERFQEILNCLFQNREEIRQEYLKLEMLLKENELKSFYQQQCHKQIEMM
T1 sequence (P02550 whole entry partner): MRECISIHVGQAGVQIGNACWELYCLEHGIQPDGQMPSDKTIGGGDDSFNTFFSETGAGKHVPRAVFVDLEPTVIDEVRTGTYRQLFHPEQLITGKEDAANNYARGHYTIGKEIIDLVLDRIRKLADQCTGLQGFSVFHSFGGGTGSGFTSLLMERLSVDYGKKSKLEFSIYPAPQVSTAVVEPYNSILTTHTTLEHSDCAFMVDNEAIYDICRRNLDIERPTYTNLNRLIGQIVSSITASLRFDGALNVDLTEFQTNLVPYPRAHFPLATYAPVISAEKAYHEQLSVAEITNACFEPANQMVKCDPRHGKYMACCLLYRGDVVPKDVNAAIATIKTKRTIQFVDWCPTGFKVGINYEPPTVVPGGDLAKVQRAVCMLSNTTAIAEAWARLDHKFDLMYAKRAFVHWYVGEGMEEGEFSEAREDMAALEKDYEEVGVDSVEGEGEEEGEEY
T1 sequence (P02554 whole entry partner): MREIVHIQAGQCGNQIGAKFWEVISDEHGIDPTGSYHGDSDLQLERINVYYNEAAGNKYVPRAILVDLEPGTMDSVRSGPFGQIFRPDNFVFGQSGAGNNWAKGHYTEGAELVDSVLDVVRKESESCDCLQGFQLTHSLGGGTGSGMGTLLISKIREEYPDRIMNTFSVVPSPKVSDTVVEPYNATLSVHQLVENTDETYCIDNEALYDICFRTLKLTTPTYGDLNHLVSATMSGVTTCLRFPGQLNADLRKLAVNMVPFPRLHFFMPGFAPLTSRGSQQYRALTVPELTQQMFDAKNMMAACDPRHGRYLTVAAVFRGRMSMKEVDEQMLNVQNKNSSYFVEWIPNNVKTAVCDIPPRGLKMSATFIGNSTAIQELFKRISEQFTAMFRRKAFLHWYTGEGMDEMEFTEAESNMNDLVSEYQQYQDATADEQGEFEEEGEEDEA

Regarding `Cc1cc(NC(=O)c2ccc(NS(=O)(=O)[C@@H](C)CO)cc2N2CCC3(CC2)CC3)nc(N2CCC(F)(F)CC2)n1` (single isomer, unassigned) [Compound C6], the IC50 (commonly the point on the concentration scale where inhibition reaches its midpoint) in data set [1] turned out to be 70 nM.
On the same count and under the same terms, to `CC(C)(C)NS(=O)(=O)c1cccc(NC(=O)c2ccc(NC(C)(C)CO)nc2N2CCC3(CC2)CC3)c1` [Compound C10, N-(3-(N-(tert-Butyl)sulfamoyl)phenyl)-6-((1-hydroxy-2-methylpropan-2-yl)amino)-2-(6-azaspiro[2.5]octan-6-yl)nicotinamide] belongs 70 nM; to `CC(C)(C)NS(=O)(=O)c1cccc(NC(=O)c2ccc(S(=O)(=O)C3(C)COC3)cc2N2CCC3(CC2)CC3)c1` [Compound C8, N-(3-(N-(tert-Butyl)sulfamoyl)phenyl)-4-((3-methyloxetan-3-yl)sulfonyl)-2-(6-azaspiro[2.5]octan-6-yl)benzamide], 61 nM.
For `CC(=O)O[C@H]1C(=O)[C@@]2(C)[C@H]([C@H](OC(=O)c3ccccc3)[C@]3(O)C[C@H](OC(=O)[C@H](O)[C@@H](NC(=O)c4ccccc4)c4ccccc4)C(C)=C1C3(C)C)[C@]1(OC(C)=O)CO[C@@H]1C[C@@H]2O` [Paclitaxel], the “fold change in potency in the presence vs in the absence of the P-gp inhibitor” value in data set [2] (GF120918 1 μM) was “greater than 500 fold”. The EC50 (in general, the concentration at which the effect is half-maximal) in data set [2] (absence of the P-gp inhibitor) is > 1000 nM; in data set [2] (presence of P-gp inhibitor GF120918 (1 μM)), 1.7 nM. Further, in data set [3], the “live cell count relative to vehicle control” value is “lower cell count”.
On to `Cc1cc(NC(=O)c2ccc(NS(=O)(=O)[C@H](C)CO)cc2N2CCC3(CC2)CC3)nc(N2CCC(F)(F)CC2)n1` (single isomer, unassigned) [Compound C5], for which the 50% inhibitory concentration (IC50) in data set [1] was determined as 62 nM.
Same read-out and setting: the value for `Cc1cc(NC(=O)c2ccc(S(=N)(=O)C3CC3)cc2N2CCC3(CC2)CC3)nc(N2CCC(F)(F)CC2)n1` (single isomer, unassigned) [Compound C2, 2-(6-azaspiro[2.5]octan-6-yl)-4-(S-cyclopropylsulfonimidoyl)-N-(2-(4,4-difluoro-1-piperidinyl)-6-methyl-4-pyrimidinyl)benzamide] was 57 nM.
The same measure, in the same setting: to `Cc1cc(NC(=O)c2ccc([S@](=N)(=O)C3CC3)cc2N2CCC3(CC2)CC3)nc(N2CCC(F)(F)CC2)n1` (single isomer, unassigned) [Compound C1, 2-(6-Azaspiro[2.5]octan-6-yl)-4-(R-cyclopropylsulfonimidoyl)-N-(2-(4,4-difluoro-1-piperidinyl)-6-methyl-4-pyrimidinyl)benzamide] belongs 64 nM.
As for `CC(=O)c1c(C)c2cnc(Nc3ccc(N4CCNCC4)cn3)nc2n(C2CCCC2)c1=O` [Palbociclib], the “BrdU incorporation relative to DMSO treated cells” value in data set [4] and in data set [5] was “decrease in BrdU incorporation” in each case. Besides, the “live cell count relative to vehicle control” value in data set [3] is on record as “lower cell count”.
